In brackets after ≈: the same amount, converted by molar mass.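 Cultured in 96-well plates, cells were exposed to test compound for 48 hours across five concentrations. At the GI50, growth is halved. TGI denotes the concentration required for complete inhibition of growth.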
Key:
Experiment in all cases: NCI anticancer screen, dose series, 48 h
[1] = system: M14 melanoma
[2] = system: SK-MEL-2 melanoma
[3] = system: U251 CNS
[4] = system: CCRF-CEM leukemia
[5] = system: IGROV1 ovarian
[6] = system: HCT-15 colon
[7] = system: MOLT-4 leukemia
[8] = system: MDA-MB-435
[9] = system: ACHN renal
[10] = system: A498 renal

For CC(C)CNC(=O)Cn1c(-c2ccccc2)cc2ccccc21, the TGI [1] was > 100 µM, the TGI [2] was > 100 µM and the TGI [3] was > 100 µM. For the same compound, the TGI [4] was > 100 µM, the TGI [5] was > 100 µM and the TGI [6] was > 100 µM. The TGI [7] was > 100 µM, the TGI [8] was > 100 µM and the TGI [9] was > 100 µM.

With COc1cc(C2SCC(=O)N2c2ccc(Oc3ccc(Cl)cc3)c(Cl)c2)cc(OC)c1OC (configuration not stated) the TGI [1] was 83.1 µM, the TGI [2] was 32.2 µM and the TGI [3] was > 100 µM. The TGI [5] was 30.7 µM, the TGI [6] was > 100 µM and the TGI [7] was > 100 µM. The TGI [8] was 41.3 µM and the TGI [9] was > 100 µM.

COc1cc(/C=C2/N=C(c3ccccc3)N(C3=NNC4(C(=O)N3)c3ccccc3-c3ccccc34)NC2=O)ccc1O showed a GI50 [1] of 34.7 µg/mL (≈ 62.3 µM), a TGI [1] of 105 µg/mL and a GI50 [3] of 24.5 µg/mL (≈ 44 µM). The TGI [3] was 44.8 µg/mL, the GI50 [4] was 46.3 µg/mL (≈ 83.2 µM) and the TGI [4] was > 150 µg/mL. For the same compound, the GI50 [5] was 30.4 µg/mL (≈ 54.6 µM), the TGI [5] was 63.3 µg/mL and the GI50 [6] was 46.7 µg/mL (≈ 83.8 µM). For the same compound, the TGI [6] was > 150 µg/mL, the GI50 [7] was 35.7 µg/mL (≈ 64.1 µM) and the TGI [7] was 123 µg/mL. For the same compound, the GI50 [8] was 26.7 µg/mL (≈ 47.9 µM), the TGI [8] was 54.4 µg/mL and the GI50 [9] was 36.3 µg/mL (≈ 65.2 µM). It also gave a TGI [9] of 123 µg/mL.

For Cc1ccc(SC(=O)N2C(=S)NC(=NC3CCCCC3)C23CCCCC3)cc1, the TGI [1] was > 100 µM, the TGI [2] was > 100 µM and the TGI [3] was > 100 µM. The TGI [4] was > 100 µM, the TGI [5] was > 100 µM and the TGI [6] was > 100 µM. The TGI [8] was > 100 µM and the TGI [9] was > 100 µM.

Cc1cc(C)n(CN(Cn2nc(C)cc2C)C2CCCCC2)n1 was tested, and the TGI [1] was 36.8 µM, the TGI [2] was 36.7 µM and the TGI [3] was 83.6 µM. The TGI [10] was > 100 µM, the TGI [4] was 44.8 µM and the TGI [5] was 50.1 µM. The TGI [6] was 42.6 µM, the TGI [8] was 45.4 µM and the TGI [9] was 51.9 µM.

In the case of O=C(NCc1ccc(Cl)cc1)c1cc2sccc2nc1C(F)(F)F, the TGI [1] is reported as > 100 µM, the TGI [2] is reported as > 100 µM and the TGI [3] is reported as 44.6 µM. The TGI [4] was > 100 µM, the TGI [5] was > 100 µM and the TGI [7] was > 100 µM. The TGI [8] was > 100 µM and the TGI [9] was 45.8 µM.

In the case of C[N+](C)(C)c1ncnc2c1ncn2C1CCCCO1 (configuration not stated), the TGI [1] is reported as > 100 µM, the TGI [2] is reported as > 100 µM and the TGI [3] is reported as > 100 µM. For the same compound, the TGI [10] was > 100 µM, the TGI [4] was > 100 µM and the TGI [5] was > 100 µM. The TGI [7] was > 100 µM, the TGI [8] was > 100 µM and the TGI [9] was > 100 µM.

In the case of COc1cccc(-c2cc(=O)c3ccc(C)nc3[nH]2)c1, the TGI [1] is reported as > 100 µM, the TGI [2] is reported as > 100 µM and the TGI [3] is reported as > 100 µM. The TGI [10] was 2.34 µM, the TGI [5] was > 95.1 µM and the TGI [7] was > 94.7 µM. For the same compound, the TGI [8] was 0.0335 µM and the TGI [9] was > 100 µM.

With NCCCCNCCCNC(=O)c1nc(-c2csc(CCN)n2)sc1Cl the TGI [1] was > 100 µM, the TGI [2] was > 100 µM and the TGI [3] was > 100 µM. For the same compound, the TGI [10] was > 100 µM, the TGI [4] was > 100 µM and the TGI [5] was > 100 µM. The TGI [6] was > 100 µM, the TGI [7] was > 100 µM and the TGI [9] was > 100 µM.

CC(C)(C)OC[C@H](O)CC#N was tested, and the TGI [1] was > 100 µM, the TGI [2] was > 100 µM and the TGI [3] was > 100 µM. For the same compound, the TGI [10] was > 100 µM, the TGI [4] was > 100 µM and the TGI [6] was > 100 µM. For the same compound, the TGI [7] was > 100 µM, the TGI [8] was > 100 µM and the TGI [9] was > 100 µM.

COc1c2cc(C(C)(C)C)cc1Cc1cccc(c1O)Cc1cc(C(C)(C)C)cc(c1OC)Cc1cccc(c1O)Cc1cc(C(C)(C)C)cc(c1OC)Cc1cccc(c1O)C2 was tested, and the TGI [1] was > 100 µM, the TGI [2] was > 100 µM and the TGI [3] was > 100 µM. The TGI [10] was > 100 µM, the TGI [6] was > 100 µM and the TGI [7] was > 100 µM. The TGI [8] was > 100 µM and the TGI [9] was > 100 µM.

With COC(=O)[C@@H]1C[C@@]2(C3C=CN(C(=O)C(F)(F)F)C=C3)c3ccccc3N(C(=O)C(F)(F)F)[C@H]2N1C(=O)OC the TGI [1] was > 100 µM, the TGI [3] was > 100 µM and the TGI [10] was > 100 µM. The TGI [4] was > 100 µM, the TGI [5] was > 100 µM and the TGI [6] was > 100 µM. For the same compound, the TGI [7] was > 100 µM, the TGI [8] was > 100 µM and the TGI [9] was > 100 µM.

In the case of CN(C)CCNc1ncnc2nc(-c3ccc4ccccc4c3)[nH]c12, the TGI [1] is reported as > 100 µM, the TGI [2] is reported as > 100 µM and the TGI [3] is reported as > 100 µM. For the same compound, the TGI [4] was > 100 µM, the TGI [5] was > 100 µM and the TGI [6] was > 100 µM. For the same compound, the TGI [7] was > 100 µM, the TGI [8] was > 100 µM and the TGI [9] was > 100 µM.

COC(=O)[C@@]12CCCC(=O)[C@@H]1[C@H]1CCCC[C@H]12 was tested, and the TGI [1] was > 100 µM, the TGI [2] was > 100 µM and the TGI [3] was > 100 µM. The TGI [4] was > 100 µM, the TGI [5] was > 100 µM and the TGI [6] was > 100 µM. For the same compound, the TGI [7] was > 100 µM, the TGI [8] was > 100 µM and the TGI [9] was > 100 µM.

In the case of Cc1cc(=O)oc2cc(O)ccc12, the TGI [2] is reported as > 100 µM, the TGI [3] is reported as > 100 µM and the TGI [10] is reported as > 100 µM. The TGI [4] was > 100 µM, the TGI [5] was > 100 µM and the TGI [6] was > 100 µM. The TGI [7] was > 100 µM, the TGI [8] was > 100 µM and the TGI [9] was > 100 µM.

COc1cc2c(cc1OC)-c1c3c(cc4c1[C@@H](C2)N(C)CC4)OCO3 showed a TGI [2] of 22 µM, a TGI [3] of 48.8 µM and a TGI [10] of 16.9 µM. The TGI [4] was 39.4 µM, the TGI [5] was 49.9 µM and the TGI [6] was 40.8 µM. It also gave a TGI [7] of 12 µM.

In the case of Oc1ccc(CCc2cc(O)cc(O)c2)cc1, the TGI [1] is reported as > 100 µM, the TGI [2] is reported as > 100 µM and the TGI [3] is reported as > 100 µM. For the same compound, the TGI [10] was > 100 µM, the TGI [5] was > 100 µM and the TGI [6] was > 100 µM. For the same compound, the TGI [7] was > 100 µM, the TGI [8] was > 100 µM and the TGI [9] was > 100 µM.

Compound O=C(NCCCNCCNC(=O)c1cc(-c2ccccc2)nc2ccccc12)c1cc(-c2ccccc2)nc2ccccc12 has a TGI [1] of 3.95 µM, a TGI [3] of 3.24 µM and a TGI [10] of 4.76 µM. For the same compound, the TGI [4] was 3.42 µM, the TGI [5] was 3.59 µM and the TGI [6] was 3.23 µM. The TGI [7] was 4.31 µM, the TGI [8] was 3.15 µM and the TGI [9] was 3.3 µM.

With CC(=O)c1cc2c(s1)C(=O)c1ccccc1C2=O the TGI [1] was 10.8 µM, the TGI [2] was 15.5 µM and the TGI [3] was 17 µM. For the same compound, the TGI [10] was > 66.8 µM, the TGI [5] was 5.5 µM and the TGI [7] was 8.67 µM. The TGI [8] was 2.21 µM and the TGI [9] was 4.02 µM.

For C[n+]1c2ccccc2c(C(=O)Nc2ccc(S(=O)(=O)N=C(N)N)cc2)c2ccccc21, the TGI [1] was > 100 µM, the TGI [2] was > 100 µM and the TGI [3] was > 100 µM. For the same compound, the TGI [10] was > 100 µM, the TGI [5] was > 100 µM and the TGI [6] was > 100 µM. For the same compound, the TGI [7] was > 100 µM, the TGI [8] was > 100 µM and the TGI [9] was > 100 µM.

O=C(CNc1ccc(Cl)cc1Cl)NC1C=Cc2ccc(S(=O)(=O)Nc3ccc(Cl)cc3Cl)cc2C1=O (configuration not stated) was tested, and the TGI [1] was > 100 µM, the TGI [2] was > 100 µM and the TGI [3] was > 100 µM. The TGI [4] was > 100 µM, the TGI [5] was > 100 µM and the TGI [6] was > 100 µM. For the same compound, the TGI [7] was > 100 µM, the TGI [8] was > 100 µM and the TGI [9] was > 100 µM.

For Nc1cc(N2CCCC2)nc(=O)n1Cc1ccccc1, the TGI [1] was > 100 µM, the TGI [2] was > 100 µM and the TGI [3] was > 100 µM. For the same compound, the TGI [4] was > 100 µM, the TGI [5] was > 100 µM and the TGI [6] was > 100 µM. For the same compound, the TGI [7] was > 100 µM, the TGI [8] was > 100 µM and the TGI [9] was > 100 µM.

— PubChem BioAssay (NCI)
